From patent US20240182445A1 (ONO PHARMACEUTICAL CO., LTD., priority 2019, published 2024)

Target: T1, human TREK-1 (Homo sapiens, UniProt O95069)
T1 construct: expressed in transfected cells
T1 sequence (O95069 1-426): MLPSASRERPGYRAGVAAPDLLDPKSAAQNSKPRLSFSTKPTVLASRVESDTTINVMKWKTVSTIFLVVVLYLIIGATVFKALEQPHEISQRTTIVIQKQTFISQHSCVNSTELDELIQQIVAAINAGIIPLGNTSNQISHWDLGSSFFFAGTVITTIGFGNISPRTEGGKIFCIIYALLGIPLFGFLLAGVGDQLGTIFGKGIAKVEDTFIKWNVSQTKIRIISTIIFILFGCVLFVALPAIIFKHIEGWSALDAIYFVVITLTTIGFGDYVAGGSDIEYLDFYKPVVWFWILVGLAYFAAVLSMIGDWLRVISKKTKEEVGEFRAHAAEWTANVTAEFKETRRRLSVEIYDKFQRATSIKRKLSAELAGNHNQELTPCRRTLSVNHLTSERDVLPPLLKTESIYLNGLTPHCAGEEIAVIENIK
Assay: TREK-1 Thallium (Tl+) flux assay, Method 1
Type: cell-based
Conditions: TREK-1 Thallium (Tl+) flux assay; no *^12 (Method 2) mark on these rows
In short: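 CHO-K1 cells stably expressing human TREK-1, loaded with Thallos dye, received compound or 0.3% DMSO vehicle for 10 min before thallium stimulus buffer. ΔRatio is fluorescence at 25 s after thallium addition over mean pre-addition fluorescence; % inhibition calculated from it.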

SMILES | IC50 [nM]
Cc1cc(C#Cc2ccc(F)cc2)cnc1NC(=O)c1c(Cl)cnn1CCN1CCN(C(=O)C2COCCO2)CC1 (centres unmarked) [Compound 246, 1-(2-(4-(1,4-dioxane-2-carbonyl)piperazin-1-yl)ethyl)-4-chloro-N-(5-((4-fluorophenyl)ethynyl)-3-methylpyridin-2-yl)-1H-pyrazole-5-carboxamide] | 390
CC(C)(C)C(=O)N1CCC(n2ncc(Cl)c2C(=O)Nc2ncc(C#Cc3cccs3)cc2F)CC1 [Compound 247, 4-chloro-N-(3-fluoro-5-(thiophen-2-ylethynyl)pyridin-2-yl)-1-(1-pivaloylpiperidin-4-yl)-1H-pyrazole-5-carboxamide] | 390
CC(=O)N1CCCC(Cn2ncc(Cl)c2C(=O)Nc2ncc(C#Cc3ccc(F)cc3)cc2C)C1 (centres unmarked) [Compound 248, 1-((1-acetylpiperidin-3-yl)methyl)-4-chloro-N-(5-((4-fluorophenyl)ethynyl)-3-methylpyridin-2-yl)-1H-pyrazole-5-carboxamide] | 390
Cc1cc(C#Cc2cccc(F)c2)cnc1NC(=O)c1c(Cl)cnn1CC1CCN(C(=O)C(C)C)CC1 [Compound 249, 4-chloro-N-(5-((3-fluorophenyl)ethynyl)-3-methylpyridin-2-yl)-1-((1-isobutyrylpiperidin-4-yl)methyl)-1H-pyrazole-5-carboxamide] | 400
O=C(Nc1ncc(C#Cc2cccs2)cc1F)c1c(Cl)cnn1CCC1CCN(C(=O)C2CC2)CC1 [Compound 250, 4-chloro-1-(2-(1-(cyclopropanecarbonyl)piperidin-4-yl)ethyl)-N-(3-fluoro-5-(thiophen-2-ylethynyl)pyridin-2-yl)-1H-pyrazole-5-carboxamide] | 400
Cc1cc(C#Cc2ccccc2)cnc1NC(=O)c1c(Cl)cnn1CC1(C)CCN(C(=O)C2COCCO2)CC1 (centres unmarked) [Compound 251, 1-((1-(1,4-dioxane-2-carbonyl)-4-methylpiperidin-4-yl)methyl)-4-chloro-N-(3-methyl-5-(phenylethynyl)pyridin-2-yl)-1H-pyrazole-5-carboxamide] | 400
O=C(Nc1c(F)cc(C#Cc2ccccc2)cc1F)c1c(Cl)cnn1C[C@H]1COCCO1 [Compound 252, (S)-1-((1,4-dioxan-2-yl)methyl)-4-chloro-N-(2,6-difluoro-4-(phenylethynyl)phenyl)-1H-pyrazole-5-carboxamide] | 410
N#CCCCn1ncc(Cl)c1C(=O)Nc1c(F)cc(C#Cc2ccccc2)cc1F [Compound 253, 4-chloro-1-(3-cyanopropyl)-N-(2,6-difluoro-4-(phenylethynyl)phenyl)-1H-pyrazole-5-carboxamide] | 410
Cc1cc(C#Cc2ccccc2)cnc1NC(=O)c1c(Cl)cnn1C1CC(C#N)C1 (centres unmarked) [Compound 254, 4-chloro-1-(3-cyanocyclobutyl)-N-(3-methyl-5-(phenylethynyl)pyridin-2-yl)-1H-pyrazole-5-carboxamide] | 420
CC(C)(C)OC(=O)N1CCC(n2ncc(Cl)c2C(=O)Nc2ncc(C#Cc3ccccc3)cc2F)CC1 [Compound 255, tert-butyl 4-(4-chloro-5-((3-fluoro-5-(phenylethynyl)pyridin-2-yl)carbamoyl)-1H-pyrazol-1-yl)piperidine-1-carboxylate] | 420
CC(=O)N1CCC(Cn2ncc(Cl)c2C(=O)Nc2ncc(C#Cc3ccc(F)cc3)cc2C)CC1 [Compound 256, 1-((1-acetylpiperidin-4-yl)methyl)-4-chloro-N-(5-((4-fluorophenyl)ethynyl)-3-methylpyridin-2-yl)-1H-pyrazole-5-carboxamide] | 420
CC(C)(C)OC(=O)N1CCN(CCn2ncc(Cl)c2C(=O)Nc2ncc(C#Cc3ccccc3)cc2F)CC1 [Compound 257, tert-butyl 4-(2-(4-chloro-5-((3-fluoro-5-(phenylethynyl)pyridin-2-yl)carbamoyl)-1H-pyrazol-1-yl)ethyl)piperazine-1-carboxylate] | 420
Cc1cc(C#Cc2ccc(F)cc2)cnc1NC(=O)c1c(Cl)cnn1C1CCN(C(=O)CC(C)C)C1 (centres unmarked) [Compound 258, 4-chloro-N-(5-((4-fluorophenyl)ethynyl)-3-methylpyridin-2-yl)-1-(1-(3-methylbutanoyl)pyrrolidin-3-yl)-1H-pyrazole-5-carboxamide] | 420
CC(=O)N1C[C@H]2C[C@H](n3ncc(Cl)c3C(=O)Nc3ncc(C#Cc4ccccc4)cc3C)C[C@H]2C1 [Compound 260, 1-[(3aR,5s,6aS)-2-acetyloctahydrocyclopenta[c]pyrrol-5-yl]-4-chloro-N-[3-methyl-5-(phenylethynyl)pyridin-2-yl]-1H-pyrazole-5-carboxamide] | 260
CC(=O)N1CCC[C@H](Cn2ncc(Cl)c2C(=O)Nc2ncc(C#Cc3ccccc3)cc2F)C1 [Compound 262, (S)-1-((1-acetylpiperidin-3-yl)methyl)-4-chloro-N-(3-fluoro-5-(phenylethynyl)pyridin-2-yl)-1H-pyrazole-5-carboxamide] | 430
Cc1cc(C#Cc2ccccc2)cnc1NC(=O)c1c(Cl)cnn1C[C@H]1CCCN(C(=O)C(C)C)C1 [Compound 263] | 430
Cc1cc(C#Cc2ccc(F)cc2)cnc1NC(=O)c1c(Cl)cnn1CC1CCCN(C(=O)C2CC2C)C1 (centres unmarked) [Compound 264, 4-chloro-N-(5-((4-fluorophenyl)ethynyl)-3-methylpyridin-2-yl)-1-((1-(2-methylcyclopropane-1-carbonyl)piperidin-3-yl)methyl)-1H-pyrazole-5-carboxamide] | 430
Cc1cc(C#Cc2ccccc2)cnc1NC(=O)c1c(Cl)cnn1CC1CCN(C(=O)OC(C)(C)C)CC1C (centres unmarked) [Compound 265, tert-butyl 4-((4-chloro-5-((3-methyl-5-(phenylethynyl)pyridin-2-yl)carbamoyl)-1H-pyrazol-1-yl)methyl)-3-methylpiperidine-1-carboxylate] | 430
N#CC1CC(n2ncc(Cl)c2C(=O)Nc2ncc(C#Cc3ccccc3)cc2F)C1 (centres unmarked) [Compound 266, 4-chloro-1-(3-cyanocyclobutyl)-N-(3-fluoro-3-(phenylethynyl)pyridin-2-yl)-1H-pyrazole-5-carboxamide] | 440
Cc1cc(C#Cc2ccccc2)cnc1NC(=O)c1c(Cl)cnn1CC1(C#N)CC1 [Compound 267, 4-chloro-1-((1-cyanocyclopropyl)methyl)-N-(3-methyl-5-(phenylethynyl)pyridin-2-yl)-1H-pyrazole-5-carboxamide] | 450
Cc1cc(C#Cc2ccccc2)cnc1NC(=O)c1c(Cl)cnn1C1CCN(C(=O)C(F)(F)F)CC1 [Compound 268, 4-chloro-N-[3-methyl-5-(2-phenylethynyl)-2-pyridyl]-2-[1-(2,2,2-trifluoroacetyl)-4-piperidyl]pyrazole-3-carboxamide] | 450
Cc1cc(C#Cc2ccc(F)cc2)cnc1NC(=O)c1c(Cl)cnn1CC1(C#N)CCN(C(=O)OC(C)(C)C)CC1 [Compound 269, tert-butyl 4-((4-chloro-5-((5-((4-fluorophenyl)ethynyl)-3-methylpyridin-2-yl)carbamoyl)-1H-pyrazol-1-yl)methyl)-4-cyanopiperidine-1-carboxylate] | 450
Cn1ncc2cc(-n3ncc(Cl)c3C(=O)Nc3ncc(C#Cc4ccccc4)cc3F)ccc21 [Compound 270, 4-chloro-N-(3-fluoro-5-(phenylethynyl)pyridin-2-yl)-1-(1-methyl-1H-indazole-5-yl)-1H-pyrazole-5-carboxamide] | 460
